The molecules below were run against Metabotropic glutamate receptor 5 (Rattus norvegicus, UniProt P31424) (assay: Displacement of [3H]-MPEP from mGlur5 from Sprague-Dawley rat brain membranes incubated for 1 hr by liquid scintillation spectrometry).
Type: tissue-based, Membrane

Sequence of Metabotropic glutamate receptor 5 (P31424 whole entry): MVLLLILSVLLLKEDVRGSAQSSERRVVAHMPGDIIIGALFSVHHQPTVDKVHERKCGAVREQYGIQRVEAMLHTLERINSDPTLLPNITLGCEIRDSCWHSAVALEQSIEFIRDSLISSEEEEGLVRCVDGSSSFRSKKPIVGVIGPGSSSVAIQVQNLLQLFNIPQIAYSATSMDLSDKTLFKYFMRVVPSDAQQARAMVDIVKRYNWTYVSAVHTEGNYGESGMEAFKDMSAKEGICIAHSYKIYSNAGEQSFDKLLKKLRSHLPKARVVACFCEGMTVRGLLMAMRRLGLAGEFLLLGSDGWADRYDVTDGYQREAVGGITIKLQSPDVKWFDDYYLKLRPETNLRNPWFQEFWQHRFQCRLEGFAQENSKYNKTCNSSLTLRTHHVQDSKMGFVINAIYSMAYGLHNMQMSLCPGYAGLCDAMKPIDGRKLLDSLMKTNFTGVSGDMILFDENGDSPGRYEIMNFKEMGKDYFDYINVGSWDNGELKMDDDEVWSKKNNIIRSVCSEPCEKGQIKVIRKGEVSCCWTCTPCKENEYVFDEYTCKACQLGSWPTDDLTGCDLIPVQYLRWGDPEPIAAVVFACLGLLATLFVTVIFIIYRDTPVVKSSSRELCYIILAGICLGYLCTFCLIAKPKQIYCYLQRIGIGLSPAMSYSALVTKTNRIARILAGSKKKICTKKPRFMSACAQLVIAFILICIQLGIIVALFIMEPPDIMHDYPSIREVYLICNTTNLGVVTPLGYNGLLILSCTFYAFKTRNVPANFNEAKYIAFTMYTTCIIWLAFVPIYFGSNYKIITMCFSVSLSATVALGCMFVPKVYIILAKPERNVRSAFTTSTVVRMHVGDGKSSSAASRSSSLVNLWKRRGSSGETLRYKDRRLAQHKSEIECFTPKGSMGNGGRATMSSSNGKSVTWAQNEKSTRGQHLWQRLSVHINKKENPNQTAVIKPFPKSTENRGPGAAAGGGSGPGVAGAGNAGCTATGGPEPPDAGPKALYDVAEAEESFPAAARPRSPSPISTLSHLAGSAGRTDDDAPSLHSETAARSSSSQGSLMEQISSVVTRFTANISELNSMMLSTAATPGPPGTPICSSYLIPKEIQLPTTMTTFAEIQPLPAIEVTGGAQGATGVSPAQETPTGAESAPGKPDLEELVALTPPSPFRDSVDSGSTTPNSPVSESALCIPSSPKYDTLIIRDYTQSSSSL

| Structure (SMILES) | IC50 [nM] |
| --- | --- |
| Cc1cc(C)c(N)c(C#Cc2cccc(F)c2)n1 | < 30 |
| Cc1ccc(N)c(C#Cc2cc(F)cc(F)c2)n1 | < 30 |
| Cc1ccc(N)c(C#Cc2cncc(Cl)c2)n1 | < 30 |

Continued, values first:

| IC50 [nM] | Structure (SMILES) |
| --- | --- |
| < 30 | Cc1cc(C)c(N)c(C#Cc2cccc(Cl)c2)n1 |
| < 30 | Cc1ccc(N)c(C#Cc2cccc(F)c2)n1 |

From ChEMBL document CHEMBL3880401, “Novel aminopyridine derivatives as mGluR5 antagonists” (2006)
